Consider 33 compounds from paper PMC11375794, “Discovery of new Hsp90–Cdc37 protein–protein interaction inhibitors: in silico screening and optimization of anticancer activity” (RSC Advances, 2024).

Assay type in all cases: cell-based
The test system of assay [1] is MCF-7 breast cancer cell line. The assay is described as follows: MTS cell viability (antiproliferative) assay in MCF-7. The note with it: MTS assay, 72 hours, mean ± SD; for IC50: Homo sapiens, MCF7, 72 h. How it is done: (§1) Hormone-positive breast cancer cell line MCF-7 (ATCC-HTB-22; ATCC) was grown in Dulbecco's Modified Eagle's Medium (DMEM), while Ewing sarcoma cell line SK-N-MC (a kind gift from Beat Schäfer) and THP-1 (ATCC-TIB-202; ATCC) cells were grown in Roswell Park Memorial Institute (RPMI) 1640. The medium was supplemented with 10% heat-inactivated fetal bovine serum (Gibco, Thermo Fisher Scientific, Waltham, MA, USA), 100 U per mL penicillin, 100 μg per mL streptomycin, and 2 mM L-glutamine (all from Sigma-Aldrich, St. Louis, MO, USA). All cell lines were incubated at 37 °C in a 5% CO2 atmosphere.
(§2) The antiproliferative activity of the compounds was evaluated against MCF-7 (ATCC-HTB-22; ATCC), SK-N-MC (a kind gift from Beat Schäfer) and THP-1 (ATCC-TIB-202; ATCC) cancer cell lines using the MTS assay (Promega, Madison, WI, USA). Cells were seeded in 96-well plates at a density of 2 × 10^4 cells per mL in 100 μL of growth medium for THP-1 and were treated with compounds and controls directly, while 3 × 10^3 cells per mL for MCF-7 and SK-N-MC were seeded in 100 μL of growth medium and allowed to adhere overnight following the treatment. In all cases the cells were treated with respective newly prepared compounds, positive controls (17-DMAG for MCF-7 and SK-N-MC; PU-H71 for THP-1) and a vehicle control (0.5% DMSO). The incubation time after treatment was 72 hours, then CellTiter96® Aqueous One Solution Reagent (Promega, Madison, WI, USA) was added to each well. Following a 3 hours incubation, absorbance was measured at 492 nm using BioTek's Synergy™ 4 Hybrid Microplate Reader (Winooski, VT, USA). The measurements were performed in two biological repetitions and each time the experiment was performed in a triplicate. The IC50 values, representing the concentration of inhibitor required for half-maximal inhibition, are the average of three independent experiments and were calculated using GraphPad Prism 9.5.0 software (San Diego, CA, USA).
Background: Tetrazolium dyes change colour on reduction, which living cells bring about.

Assay [2] relates to Ewing sarcoma cell line SK-N-MC. Description: MTS cell viability (antiproliferative) assay in SK-N-MC. The conditions noted are these: 72 hours, mean ± SD; for IC50: Homo sapiens, SK-N-MC. How it is done: as §1, §2
The subject of another assay is leukemia cell line THP-1. The assay is described as follows: MTS cell viability (antiproliferative) assay in THP-1. The conditions noted are these: Homo sapiens, THP-1, 72 hours, mean ± SD. How it is done:
as §1, §2

In general, IC50 refers to the concentration that inhibits the measured activity by half.

Consider `COc1ccc(OCCN(C)C(=O)c2csc(Nc3cc(C4CCCN(CC#N)C4)nc(C)n3)n2)cc1` (centres unmarked) [Compound 2], for which, in assay [1], the IC50 was 47.4 ± 0.9 µM.

On to `COc1ccccc1OCCN(C)C(=O)c1csc(Nc2cc(C3CCCN(CC#N)C3)nc(C)n2)n1` (centres unmarked) [Compound 3], for which the 50% inhibitory concentration (IC50) in assay [1] came out at 34.9 ± 2.7 µM.

As to `CN(Cc1ccccc1)C(=O)c1csc(Nc2cc(N3CCCC3)ncn2)n1` [Compound 6a, N-Benzyl-N-methyl-2-((6-(pyrrolidin-1-yl)pyrimidin-4-yl)amino)thiazole-4-carboxamide], the IC50 in assay [1] turned out to be 20.8 ± 2.2 µM.

Consider `CN(CCc1ccccc1)C(=O)c1csc(Nc2cc(N3CCCC3)ncn2)n1` [Compound 6b, N-Methyl-N-phenethyl-2-((6-(pyrrolidin-1-yl)pyrimidin-4-yl)amino)thiazole-4-carboxamide], for which the concentration for half-maximal inhibition (IC50) in assay [1] came out at 15.2 ± 0.7 µM.

As to `CN(CCOc1ccccc1)C(=O)c1csc(Nc2cc(N3CCCC3)ncn2)n1` [Compound 6c, N-Methyl-N-(2-phenoxyethyl)-2-((6-(pyrrolidin-1-yl)pyrimidin-4-yl)amino)thiazole-4-carboxamide], the 50% inhibitory concentration (IC50) was 26.2 ± 0.4 µM in assay [2], 28.1 ± 1.4 µM in assay [1] and greater than 50 µM in the assay on leukemia cell line THP-1.

Turning to `CN(Cc1ccccc1)C(=O)c1csc(Nc2cc(N3CCNCC3)ncn2)n1` [Compound 8a, N-Benzyl-N-methyl-2-((6-(piperazin-1-yl)pyrimidin-4-yl)amino)thiazole-4-carboxamide], in assay [1], the IC50 was 17.1 ± 1.4 µM.

Regarding `CN(CCc1ccccc1)C(=O)c1csc(Nc2cc(N3CCNCC3)ncn2)n1` [Compound 8b, N-Methyl-N-phenethyl-2-((6-(piperazin-1-yl)pyrimidin-4-yl)amino)thiazole-4-carboxamide], in assay [1], the IC50 stood at 27.3 ± 2 µM.

Take `O=C(NCCc1ccccc1)c1cccc(Nc2cc(N3CCCC3)ncn2)c1` [Compound 11a, N-Phenethyl-3-((6-(pyrrolidin-1-yl)pyrimidin-4-yl)amino)benzamide]: the IC50 in assay [1] was 20.6 ± 3 µM.

Consider `O=C(NCCOc1ccccc1)c1cccc(Nc2cc(N3CCCC3)ncn2)c1` [Compound 11b, N-(2-Phenoxyethyl)-3-((6-(pyrrolidin-1-yl)pyrimidin-4-yl)amino)benzamide], for which the IC50 was 26.9 ± 1 µM in assay [2], 14.6 ± 4.5 µM in assay [1] and greater than 50 µM with leukemia cell line THP-1.

Take `CN(Cc1ccccc1)C(=O)c1cccc(Nc2cc(N3CCCC3)ncn2)c1` [Compound 11c, N-Benzyl-N-methyl-3-((6-(pyrrolidin-1-yl)pyrimidin-4-yl)amino)benzamide]: in assay [1], the IC50 was found to be 36.7 ± 6.1 µM.

`CN(CCc1ccccc1)C(=O)c1cccc(Nc2cc(N3CCCC3)ncn2)c1` [Compound 11d, N-Methyl-N-phenethyl-3-((6-(pyrrolidin-1-yl)pyrimidin-4-yl)amino)benzamide]: the IC50 in assay [1] amounted to 29.1 ± 5 µM.

For `CN(CCOc1ccccc1)C(=O)c1cccc(Nc2cc(N3CCCC3)ncn2)c1` [Compound 11e, N-Methyl-N-(2-phenoxyethyl)-3-((6-(pyrrolidin-1-yl)pyrimidin-4-yl)amino)benzamide], in assay [1], the IC50 was determined as 34.1 ± 2.9 µM.

As for `O=C(NCCc1ccccc1)c1ccc(Nc2cc(N3CCCC3)ncn2)cc1` [Compound 11f, N-Phenethyl-4-((6-(pyrrolidin-1-yl)pyrimidin-4-yl)amino)benzamide], the 50% inhibitory concentration (IC50) in assay [1] is greater than 50 µM.

For `O=C(NCCOc1ccccc1)c1ccc(Nc2cc(N3CCCC3)ncn2)cc1` [Compound 11g, N-(2-Phenoxyethyl)-4-((6-(pyrrolidin-1-yl)pyrimidin-4-yl)amino)benzamide], the “SK-N-MC IC50” value in assay [2] is “inactive”. Also, the IC50 (in assay [2]; in assay [1]; in the assay with leukemia cell line THP-1) was greater than 50 µM throughout.

`CN(Cc1ccccc1)C(=O)c1ccc(Nc2cc(N3CCCC3)ncn2)cc1` [Compound 11h, N-Benzyl-N-methyl-4-((6-(pyrrolidin-1-yl)pyrimidin-4-yl)amino)benzamide]: the IC50 in assay [1] worked out at 18.3 ± 7 µM.

As to `CN(CCc1ccccc1)C(=O)c1ccc(Nc2cc(N3CCCC3)ncn2)cc1` [Compound 11i, N-Methyl-N-phenethyl-4-((6-(pyrrolidin-1-yl)pyrimidin-4-yl)amino)benzamide], in assay [1], the IC50 was found to be 18 ± 1.5 µM.

Take `CN(CCOc1ccccc1)C(=O)c1ccc(Nc2cc(N3CCCC3)ncn2)cc1` [Compound 11j, N-Methyl-N-(2-phenoxyethyl)-4-((6-(pyrrolidin-1-yl)pyrimidin-4-yl)amino)benzamide]: the IC50 in assay [1] was greater than 50 µM.

As for `O=C(NCCc1ccccc1)c1cccc(Nc2cc(N3CCNCC3)ncn2)c1` [Compound 13a, N-Phenethyl-3-((6-(piperazin-1-yl)pyrimidin-4-yl)amino)benzamide], the IC50 in assay [1] was determined as 31.9 ± 3.2 µM.

Turning to `O=C(NCCOc1ccccc1)c1cccc(Nc2cc(N3CCNCC3)ncn2)c1` [Compound 13b, N-(2-Phenoxyethyl)-3-((6-(piperazin-1-yl)pyrimidin-4-yl)amino)benzamide], the IC50 in assay [2] is 22.2 ± 0.2 µM; in assay [1] it was 22.5 ± 3.3 µM; in the assay on leukemia cell line THP-1 it was greater than 50 µM.

For the compound `CN(Cc1ccccc1)C(=O)c1cccc(Nc2cc(N3CCNCC3)ncn2)c1` [Compound 13c, N-Benzyl-N-methyl-3-((6-(piperazin-1-yl)pyrimidin-4-yl)amino)benzamide], the IC50 in assay [1] is 31.9 ± 2.1 µM.

Consider `CN(CCc1ccccc1)C(=O)c1cccc(Nc2cc(N3CCNCC3)ncn2)c1` [Compound 13d, N-Methyl-N-phenethyl-3-((6-(piperazin-1-yl)pyrimidin-4-yl)amino)benzamide], for which, in assay [1], the IC50 is greater than 50 µM.

With `CN(CCOc1ccccc1)C(=O)c1cccc(Nc2cc(N3CCNCC3)ncn2)c1` [Compound 13e, N-Methyl-N-(2-phenoxyethyl)-3-((6-(piperazin-1-yl)pyrimidin-4-yl)amino)benzamide], the concentration for half-maximal inhibition (IC50) in assay [1] was greater than 50 µM.

For `O=C(NCCc1ccccc1)c1ccc(Nc2cc(N3CCNCC3)ncn2)cc1` [Compound 13f, N-Phenethyl-4-((6-(piperazin-1-yl)pyrimidin-4-yl)amino)benzamide], the IC50 in assay [1] amounted to 17.9 ± 0.5 µM.

As to `CN(Cc1ccccc1)C(=O)c1ccc(Nc2cc(N3CCNCC3)ncn2)cc1` [Compound 13h, N-Benzyl-N-methyl-4-((6-(piperazin-1-yl)pyrimidin-4-yl)amino)benzamide], in assay [1], the IC50 turned out to be 14.5 ± 4.7 µM.

Regarding `CN(CCc1ccccc1)C(=O)c1ccc(Nc2cc(N3CCNCC3)ncn2)cc1` [Compound 13i, N-Methyl-N-phenethyl-4-((6-(piperazin-1-yl)pyrimidin-4-yl)amino)benzamide], the IC50 in assay [1] was 38.3 ± 4.9 µM.

For the compound `CN(CCOc1ccccc1)C(=O)c1ccc(Nc2cc(N3CCNCC3)ncn2)cc1` [Compound 13j, N-Methyl-N-(2-phenoxyethyl)-4-((6-(piperazin-1-yl)pyrimidin-4-yl)amino)benzamide], in assay [1], the IC50 is 20.8 ± 2.7 µM.

For `CN(CCc1ccccc1)C(=O)c1cccc(Nc2cc(N3CCCCC3)ncn2)c1` [Compound 14, N-Methyl-N-phenethyl-3-((6-(piperidin-1-yl)pyrimidin-4-yl)amino)benzamide], in assay [1], the IC50 is greater than 50 µM.

Consider `CN(CCc1ccccc1)C(=O)c1cccc(Nc2cc(N3CCC(N)CC3)ncn2)c1` [Compound 18, 3-((6-(4-Aminopiperidin-1-yl)pyrimidin-4-yl)amino)-N-methyl-N-phenethylbenzamide], for which, in assay [1], the IC50 was greater than 50 µM and the “MCF-7 IC50” value is recorded as “not active”.

As to `O=C(NCCOc1ccccc1)c1ccc(Nc2cc(N3CCCCC3)ncn2)cc1` [Compound 19, N-(2-Phenoxyethyl)-4-((6-(piperidin-1-yl)pyrimidin-4-yl)amino)benzamide], the IC50 in assay [1] was greater than 50 µM.

In the case of `O=C(NCCOc1ccccc1)c1ccc(Nc2cc(N3CCOCC3)ncn2)cc1` [Compound 20, 4-((6-Morpholinopyrimidin-4-yl)amino)-N-(2-phenoxyethyl)benzamide], the IC50 in assay [1] is greater than 50 µM.

With `O=C(NCCOc1ccccc1)c1ccc(Nc2cc(N3CCC(O)CC3)ncn2)cc1` [Compound 21, 4-((6-(4-Hydroxypiperidin-1-yl)pyrimidin-4-yl)amino)-N-(2-phenoxyethyl)benzamide], the IC50 in assay [1] is greater than 50 µM.

Take `NC1CCN(c2cc(Nc3ccc(C(=O)NCCOc4ccccc4)cc3)ncn2)CC1` [Compound 23, 4-((6-(4-Aminopiperidin-1-yl)pyrimidin-4-yl)amino)-N-(2-phenoxyethyl)benzamide]: the half-maximal inhibitory concentration (IC50) in assay [1] is greater than 50 µM.

`N#CCN1CCN(c2cc(Nc3ccc(C(=O)NCCOc4ccccc4)cc3)ncn2)CC1` [Compound 24, 4-((6-(4-(Cyanomethyl)piperazin-1-yl)pyrimidin-4-yl)amino)-N-(2-phenoxyethyl)benzamide]: in assay [1], the IC50 is greater than 50 µM and the “MCF-7 IC50” value is “loss of activity”.
